Results published in ChEMBL document CHEMBL1201862, “PubChem BioAssay data set” (2004).
Calls of active or inactive are those of the source.

What was measured:
cells = type: functional
[1] = microbe, parasite or virus in culture; type: functional; details: Mycobacterium tuberculosis
[2] = molecular target: T1, Alkaline phosphatase, tissue-nonspecific isozyme (Homo sapiens, UniProt P05186)
T1 sequence (P05186 whole entry): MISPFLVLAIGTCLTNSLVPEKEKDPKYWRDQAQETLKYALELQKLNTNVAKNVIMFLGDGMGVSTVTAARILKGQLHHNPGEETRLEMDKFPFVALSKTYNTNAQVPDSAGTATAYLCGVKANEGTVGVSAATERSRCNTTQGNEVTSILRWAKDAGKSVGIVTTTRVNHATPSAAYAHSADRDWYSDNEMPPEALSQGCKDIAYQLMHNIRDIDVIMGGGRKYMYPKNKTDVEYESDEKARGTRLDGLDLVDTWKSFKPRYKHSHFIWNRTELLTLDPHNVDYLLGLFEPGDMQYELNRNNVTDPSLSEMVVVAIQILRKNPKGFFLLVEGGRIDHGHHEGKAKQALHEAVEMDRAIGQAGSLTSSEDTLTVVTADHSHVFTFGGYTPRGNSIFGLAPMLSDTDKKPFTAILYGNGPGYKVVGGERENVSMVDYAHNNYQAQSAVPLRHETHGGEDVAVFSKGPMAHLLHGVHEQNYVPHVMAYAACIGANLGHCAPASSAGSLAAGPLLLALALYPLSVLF

NADPH oxidase 1 = molecular target: T2, NADPH oxidase 1 (Homo sapiens, UniProt Q9Y5S8); type: functional, cell-based;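 note: Cell-based assay with luminescence read-out, IC50 derived from inhibitor dose-response curves; intracellular ROS from endogenous NOX1 in intact HT29 colon cancer cells; potency of inhibitors that lower the ROS luminescence signal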
T2 sequence (Q9Y5S8 whole entry): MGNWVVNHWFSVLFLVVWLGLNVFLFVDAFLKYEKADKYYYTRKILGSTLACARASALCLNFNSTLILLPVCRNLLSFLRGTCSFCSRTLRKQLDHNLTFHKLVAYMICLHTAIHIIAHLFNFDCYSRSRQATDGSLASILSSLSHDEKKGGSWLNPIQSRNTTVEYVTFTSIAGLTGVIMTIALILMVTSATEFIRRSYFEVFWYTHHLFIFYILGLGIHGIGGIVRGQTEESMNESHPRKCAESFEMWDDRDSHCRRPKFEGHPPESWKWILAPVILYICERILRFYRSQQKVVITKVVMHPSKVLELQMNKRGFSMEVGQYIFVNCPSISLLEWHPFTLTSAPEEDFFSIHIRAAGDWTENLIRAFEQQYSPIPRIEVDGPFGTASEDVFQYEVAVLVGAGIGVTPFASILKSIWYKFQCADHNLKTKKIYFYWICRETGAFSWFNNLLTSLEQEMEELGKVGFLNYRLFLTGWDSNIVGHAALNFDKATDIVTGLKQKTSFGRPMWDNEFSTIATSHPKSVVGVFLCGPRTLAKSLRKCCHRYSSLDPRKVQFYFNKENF

[3] = molecular target: T3, Eukaryotic translation initiation factor 2-alpha kinase 3 (Homo sapiens, UniProt Q9NZJ5); assay: Dose response cell-based high-throughput screening assay to measure PERK inhibition. [Related pubchem assays: 1416 ]; type: functional
T3 sequence (Q9NZJ5 whole entry): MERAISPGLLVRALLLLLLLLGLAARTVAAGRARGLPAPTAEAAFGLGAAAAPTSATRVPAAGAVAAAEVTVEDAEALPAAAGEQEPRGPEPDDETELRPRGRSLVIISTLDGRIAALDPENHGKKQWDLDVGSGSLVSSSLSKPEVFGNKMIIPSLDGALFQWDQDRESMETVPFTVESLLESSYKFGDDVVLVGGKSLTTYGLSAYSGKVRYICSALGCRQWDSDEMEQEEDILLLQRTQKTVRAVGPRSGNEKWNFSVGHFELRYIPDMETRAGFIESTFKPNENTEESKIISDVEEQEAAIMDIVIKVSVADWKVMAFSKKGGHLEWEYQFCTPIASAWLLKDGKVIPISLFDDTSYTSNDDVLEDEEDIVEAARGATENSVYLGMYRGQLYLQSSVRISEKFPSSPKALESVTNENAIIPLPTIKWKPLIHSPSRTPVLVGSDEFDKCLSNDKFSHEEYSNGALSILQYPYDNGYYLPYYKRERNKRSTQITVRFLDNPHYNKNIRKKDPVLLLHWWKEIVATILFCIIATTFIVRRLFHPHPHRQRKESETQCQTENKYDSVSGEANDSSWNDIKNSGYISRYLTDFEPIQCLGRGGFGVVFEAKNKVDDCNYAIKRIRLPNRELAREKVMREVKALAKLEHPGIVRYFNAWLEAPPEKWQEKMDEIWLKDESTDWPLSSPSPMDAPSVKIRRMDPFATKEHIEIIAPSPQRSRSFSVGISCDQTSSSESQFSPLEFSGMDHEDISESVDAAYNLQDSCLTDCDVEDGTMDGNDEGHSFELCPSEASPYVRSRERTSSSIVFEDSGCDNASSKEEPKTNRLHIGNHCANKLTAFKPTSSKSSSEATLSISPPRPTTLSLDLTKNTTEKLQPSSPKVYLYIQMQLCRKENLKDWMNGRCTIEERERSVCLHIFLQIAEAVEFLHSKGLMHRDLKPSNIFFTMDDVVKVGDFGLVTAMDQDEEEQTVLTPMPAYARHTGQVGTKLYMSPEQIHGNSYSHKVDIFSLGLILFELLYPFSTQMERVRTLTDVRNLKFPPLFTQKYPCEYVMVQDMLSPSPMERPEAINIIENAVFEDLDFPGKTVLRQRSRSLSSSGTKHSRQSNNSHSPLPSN

[4] = molecular target: T3, Eukaryotic translation initiation factor 2-alpha kinase 3; assay: Counterscreen assay for PERK inhibitors: Dose response cell-based high throughput screening assay to measure inhibition of PERK at 6 hours. [Related pubchem assays: 1522, 1416 ]; type: functional
Ion channel NompC = Ion channel NompC (Danio rerio, UniProt Q7T1G6); assay: Fluorescence counterscreen assay for TRPML3 agonists: dose response cell-based high-throughput screening assay to identify agonists of the transient receptor potential channel N1 (TRPN1). [Related pubchem assays: 1526, 1424, 1448 ]; type: functional
Mucolipin-3 = molecular target: T4, Mucolipin-3 (Homo sapiens, UniProt Q8TDD5); assay: Dose response cell-based high-throughput screening assay for agonists of the transient receptor potential channel ML3 (TRPML3). [Related pubchem assays: 1526, 1424, 1448 ]; type: functional
T4 sequence (Q8TDD5 whole entry): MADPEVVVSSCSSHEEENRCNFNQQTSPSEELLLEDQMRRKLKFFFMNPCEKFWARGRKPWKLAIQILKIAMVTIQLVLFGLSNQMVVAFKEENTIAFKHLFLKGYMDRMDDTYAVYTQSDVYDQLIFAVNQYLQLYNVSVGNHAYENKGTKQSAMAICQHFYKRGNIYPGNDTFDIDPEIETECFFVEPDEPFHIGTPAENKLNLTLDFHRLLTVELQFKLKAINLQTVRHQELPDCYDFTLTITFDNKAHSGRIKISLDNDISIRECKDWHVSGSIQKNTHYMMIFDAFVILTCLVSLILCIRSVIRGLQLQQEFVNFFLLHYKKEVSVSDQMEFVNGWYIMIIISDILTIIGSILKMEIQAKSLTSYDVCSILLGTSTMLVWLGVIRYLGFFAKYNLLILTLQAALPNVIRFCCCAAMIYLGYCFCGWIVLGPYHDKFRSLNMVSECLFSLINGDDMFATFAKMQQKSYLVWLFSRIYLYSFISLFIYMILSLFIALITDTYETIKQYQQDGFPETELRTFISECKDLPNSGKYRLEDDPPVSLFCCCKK

[5] = molecular target: DNA dC->dU-editing enzyme APOBEC-3A (Homo sapiens, UniProt P31941); assay: APOBEC3A DNA deaminase inhibitors, dose response, biochemical (AID 504722); type: functional
[6] = molecular target: DNA dC->dU-editing enzyme APOBEC-3G (Homo sapiens, UniProt Q9HC16); assay: Dose Response confirmation of small molecule APOBEC3G DNA Deaminase Inhibitors via a fluorescence-based single-stranded DNA deaminase assay. [Related pubchem assays (depositor defined):AID493012, AID493028]; type: functional
DNA dC->dU-editing enzyme APOBEC-3G, sequence (Q9HC16 whole entry): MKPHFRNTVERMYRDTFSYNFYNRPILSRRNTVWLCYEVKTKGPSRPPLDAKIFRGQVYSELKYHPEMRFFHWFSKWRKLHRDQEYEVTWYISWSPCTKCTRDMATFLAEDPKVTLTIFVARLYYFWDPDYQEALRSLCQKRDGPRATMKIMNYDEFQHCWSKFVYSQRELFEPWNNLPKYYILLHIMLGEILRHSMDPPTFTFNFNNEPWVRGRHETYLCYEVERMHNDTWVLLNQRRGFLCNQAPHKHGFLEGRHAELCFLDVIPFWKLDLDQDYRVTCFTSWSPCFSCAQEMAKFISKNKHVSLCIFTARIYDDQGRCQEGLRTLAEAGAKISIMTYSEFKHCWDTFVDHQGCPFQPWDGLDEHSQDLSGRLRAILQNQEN

Ion channel NompC, sequence (Q7T1G6 whole entry): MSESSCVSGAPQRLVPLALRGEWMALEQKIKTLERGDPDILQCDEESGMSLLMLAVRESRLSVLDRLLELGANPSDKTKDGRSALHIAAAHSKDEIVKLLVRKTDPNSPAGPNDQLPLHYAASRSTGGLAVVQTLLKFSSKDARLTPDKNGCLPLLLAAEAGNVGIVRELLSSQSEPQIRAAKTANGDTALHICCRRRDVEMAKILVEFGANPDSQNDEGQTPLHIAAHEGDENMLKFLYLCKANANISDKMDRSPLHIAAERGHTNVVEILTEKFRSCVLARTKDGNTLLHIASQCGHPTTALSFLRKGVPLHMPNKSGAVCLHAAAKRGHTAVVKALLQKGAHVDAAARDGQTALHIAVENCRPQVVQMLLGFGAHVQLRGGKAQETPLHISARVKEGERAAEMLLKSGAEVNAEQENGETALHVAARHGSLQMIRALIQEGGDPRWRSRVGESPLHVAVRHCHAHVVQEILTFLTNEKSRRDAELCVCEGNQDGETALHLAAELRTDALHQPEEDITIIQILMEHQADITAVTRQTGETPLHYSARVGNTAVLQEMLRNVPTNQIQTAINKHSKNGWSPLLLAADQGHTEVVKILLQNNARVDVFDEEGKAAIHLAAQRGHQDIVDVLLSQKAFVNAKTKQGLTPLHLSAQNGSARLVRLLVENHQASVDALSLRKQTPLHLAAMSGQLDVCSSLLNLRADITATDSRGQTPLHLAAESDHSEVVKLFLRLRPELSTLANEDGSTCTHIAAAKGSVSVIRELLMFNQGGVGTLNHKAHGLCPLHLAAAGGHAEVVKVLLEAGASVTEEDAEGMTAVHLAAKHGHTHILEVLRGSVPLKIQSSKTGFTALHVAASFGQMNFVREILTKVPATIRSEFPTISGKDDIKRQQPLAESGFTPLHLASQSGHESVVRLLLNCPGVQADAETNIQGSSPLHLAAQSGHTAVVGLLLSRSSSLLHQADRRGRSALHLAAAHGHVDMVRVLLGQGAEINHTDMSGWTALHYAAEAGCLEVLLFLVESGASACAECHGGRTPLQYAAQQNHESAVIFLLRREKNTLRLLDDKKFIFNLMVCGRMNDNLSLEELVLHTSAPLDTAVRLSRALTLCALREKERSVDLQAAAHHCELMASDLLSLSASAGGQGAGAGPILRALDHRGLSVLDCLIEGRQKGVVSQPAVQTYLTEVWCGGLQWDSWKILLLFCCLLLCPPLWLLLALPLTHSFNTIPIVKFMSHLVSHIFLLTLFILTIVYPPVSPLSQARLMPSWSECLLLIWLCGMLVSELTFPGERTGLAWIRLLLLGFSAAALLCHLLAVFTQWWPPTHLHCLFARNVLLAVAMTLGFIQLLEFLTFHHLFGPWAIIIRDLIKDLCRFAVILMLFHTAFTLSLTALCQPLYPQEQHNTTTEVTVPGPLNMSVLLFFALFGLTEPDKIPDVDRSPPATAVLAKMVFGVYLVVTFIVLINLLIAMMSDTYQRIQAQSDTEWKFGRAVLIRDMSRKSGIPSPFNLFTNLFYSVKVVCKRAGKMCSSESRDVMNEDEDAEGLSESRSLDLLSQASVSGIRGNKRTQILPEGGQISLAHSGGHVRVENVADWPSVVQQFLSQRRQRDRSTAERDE
DNA dC->dU-editing enzyme APOBEC-3A, sequence (P31941 whole entry): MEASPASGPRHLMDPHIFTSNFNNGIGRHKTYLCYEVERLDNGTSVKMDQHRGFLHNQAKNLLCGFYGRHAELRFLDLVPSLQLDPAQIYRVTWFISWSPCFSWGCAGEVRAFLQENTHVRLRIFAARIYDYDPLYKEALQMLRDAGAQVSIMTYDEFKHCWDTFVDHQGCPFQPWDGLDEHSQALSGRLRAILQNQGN

SMILES: CCCCN1C(=O)C2(NNc3ccccc3O2)c2ccccc21 (stereo unspecified)
- IC50 (cells): 36.5 µM (active)
- CC50 [1]: > 40 µM (active)
- EC50 [2]: < 0.195 µM (not active)

SMILES: Oc1ccc(-c2nc(-c3ccccc3)c(-c3ccccc3)[nH]2)cc1
- IC50 (NADPH oxidase 1): > 17 µM (not active)

SMILES: CC(=O)Nc1ccc(NC(=O)Nc2cc(C)cc(C)c2)cc1
- EC50 [3]: > 55.7 µM (not active)
- EC50 [4]: > 55.7 µM (not active)

SMILES: O=C(Cc1ncon1)Nc1ccc(F)c(F)c1F
- EC50 [3]: > 55.7 µM (not active)
- EC50 [4]: > 55.7 µM (not active)

SMILES: CSc1ccc2c(c1)Nc1ccccc1S2
- IC50 (NADPH oxidase 1): 0.241 µM (active)

SMILES: CCNC(=S)N(Cc1cccs1)Cc1cc2cc(OCC)ccc2nc1O
- EC50 (Ion channel NompC): > 29.9 µM (not active)
- EC50 (Mucolipin-3): > 29.9 µM (not active)

SMILES: CC(C)(C)NS(=O)(=O)c1cccc2nsnc12
- EC50 [3]: > 55.7 µM (not active)
- EC50 [4]: > 55.7 µM (not active)

SMILES: S=c1nc(-c2ccccc2)n(-c2ccccc2)[nH]1
- IC50 [5]: > 100 µM (inactive)
- IC50 [6]: 7.02 µM (active)

SMILES: CCOC(=O)c1c(NC(=O)COc2ncnc3ccccc23)sc(C)c1C
- EC50 [2]: > 100 µM (not active)
